Source: PMC12102759 (Protein Science : A Publication of the Protein Society, 2025)
Where two headings read alike, the source gives them in different places. Residues, ends and D or L forms follow the SMILES beside them. *: point of attachment. FITC = O=C1OC2(c3ccc(O)cc3Oc3cc(O)ccc32)c2ccc(NC(=S)*)cc21

What was measured:
Experiment in all cases: biochemical
[1] = target: T1, NSP3 UBl1 (Severe acute respiratory syndrome coronavirus 2, UniProt P0DTC1); format: binding, SARS‐CoV‐2
[2] = target: TLN1 PTB (Homo sapiens, UniProt Q9Y490); format: binding
Chain of TLN1 PTB (Q9Y490 309-401): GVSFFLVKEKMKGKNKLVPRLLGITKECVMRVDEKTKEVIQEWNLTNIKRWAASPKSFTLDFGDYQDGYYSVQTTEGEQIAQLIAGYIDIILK

[3] = target: T2, NSP3 ADRP (Severe acute respiratory syndrome coronavirus 2, UniProt P0DTC1); format: binding, SARS‐CoV‐2
[4] = target: T3, NSP3 SUD-M (Severe acute respiratory syndrome coronavirus 2, UniProt P0DTC1); format: binding, SARS‐CoV‐2
[5] = target: T3, NSP3 SUD-M; format: binding, SARS‐CoV‐2; remark: listed apart in the source
[6] = target: T1, NSP3 UBl1; format: binding, SARS‐CoV‐2; remark: listed apart in the source
[7] = target: T2, NSP3 ADRP; format: binding, SARS‐CoV‐2; remark: listed apart in the source
[8] = target: NSP9 (Severe acute respiratory syndrome coronavirus 2, UniProt P0DTC1); format: binding, SARS‐CoV‐2

Ac-PSDEQALLDQLYLALR-NH2 [NCOA2 G1077Q] gave an IC50 [1] of 98 µM and a Kd [1] of 19 µM.

With “Ac-LADLIWTDSKLYIPLE-NH2 [TPTE2_92‐107 F97W]” the Kd [2] was 0.1 µM and the “fold higher affinity than wild‐type TPTE2_92‐107” value [2] was 44 fold.

“Ac-PSDEQALLQQLYLALR-NH2 [NCOA2 G1077Q D1081Q]” showed an IC50 [1] of 66.2 µM and a Kd [1] of 5.1 µM.

Work on Ac-LADLIFTDSALYIPLE-NH2 [TPTE2_K101A] yielded a Kd [2] of 15 µM.

Ac-STYLHPLSELLGIPLD-NH2 [MBOAT1 wt] showed an IC50 [3] of 175 µM.

Ac-STALHPLSELLGIPLDY-NH2 [MBOAT1 Y19A] was tested, and the IC50 [3] was 452 µM and the Kd [3] was 161 µM.

With Ac-STYLHPLSELLGMPLD-NH2 [MBOAT1 I29M] the IC50 [3] was 268 µM and the Kd [3] was 86.5 µM.

Work on Ac-PSDEGALLDQLYLALR-NH2 [NCOA2 wt] yielded an IC50 [1] of 139 µM and a Kd [1] of 39 µM.

Work on Ac-LADLIFTDSKLYLPLE-NH2 [TPTE2_I104L] yielded a Kd [2] of 4.5 µM.

With Ac-QFTEEELHFVLYGVTPY-NH2 [PRDM14 D201E] the IC50 [4] was 90 µM, the Kd [4] was 5.4 µM and the “fold increase in affinity compared to wild‐type PRDM14 peptide” value [4] was 14 fold.

For Ac-STYIHPLSELLGIPLD-NH2 [MBOAT1 L20I], the IC50 [3] was 429 µM and the Kd [3] was 152 µM.

`CC(C)C[C@H](NC(=O)[C@H](CC(=O)O)NC(=O)[C@H](CCC(=O)O)NC(=O)[C@H](CCC(=O)O)NC(=O)[C@@H](NC(=O)[C@H](Cc1ccccc1)NC(=S)Nc1ccc2c(c1)C(=O)OC21c2ccc(O)cc2Oc2cc(O)ccc21)[C@@H](C)O)C(=O)N[C@@H](Cc1c[nH]cn1)C(=O)N[C@@H](Cc1ccccc1)C(=O)N[C@H](C(=O)N[C@@H](CC(C)C)C(=O)N[C@@H](Cc1ccc(O)cc1)C(=O)NCC(=O)N[C@H](C(=O)N[C@H](C(=O)N1CCC[C@H]1C(=O)N[C@@H](CO)C(=O)O)[C@@H](C)O)C(C)C)C(C)C` ({FITC}-FTEEDLHFVLYGVTPS-OH) was tested, and the Kd [5] was 19 µM.

Ac-PSDEGALLQQLYLALR-NH2 [NCOA2 D1081Q] gave an IC50 [1] of 108 µM and a Kd [1] of 24 µM.

Compound Ac-LADLIFTDSKLYIPLE-NH2 [TPTE2 wt] has an IC50 [2] of 15 µM and a Kd [2] of 4.5 µM.

Ac-QFTEENLHFVLYGVTPY-NH2 [PRDM14 D201N] showed an IC50 [4] of 1430 µM and a Kd [4] of 313 µM.

In the case of Ac-STYLHPLSELFGIPLD-NH2 [MBOAT1 L27F], the IC50 [3] is reported as 255 µM and the Kd [3] is reported as 82 µM.

Ac-STYLHPLSELLGIPFD-NH2 [MBOAT1 L31F] gave an IC50 [3] of 285 µM and a Kd [3] of 93 µM.

In the case of `CC(C)C[C@H](NC(=O)[C@H](C)NC(=O)[C@H](CC(C)C)NC(=O)[C@H](Cc1ccc(O)cc1)NC(=O)[C@H](CC(C)C)NC(=O)[C@H](CCC(N)=O)NC(=O)[C@H](CC(=O)O)NC(=O)[C@H](CC(C)C)NC(=O)[C@H](CC(C)C)NC(=O)[C@H](C)NC(=O)CNC(=O)[C@H](CCC(=O)O)NC(=O)[C@H](CC(=O)O)NC(=O)[C@H](CO)NC(=S)Nc1ccc2c(c1)C(=O)OC21c2ccc(O)cc2Oc2cc(O)ccc21)C(=O)N[C@@H](CCCNC(=N)N)C(=O)N[C@@H](CC(N)=O)C(=O)O` ({FITC}-SDEGALLDQLYLALRN-OH), the Kd [6] is reported as 67 µM.

In the case of Ac-STYLHPLSELLTIPLD-NH2 [MBOAT1 G28T], the IC50 [3] is reported as 311 µM and the Kd [3] is reported as 104 µM.

In the case of `CC[C@H](C)[C@H](NC(=O)CNC(=O)[C@H](CC(C)C)NC(=O)[C@H](CC(C)C)NC(=O)[C@H](CCC(=O)O)NC(=O)[C@H](CO)NC(=O)[C@H](CC(C)C)NC(=O)[C@@H]1CCCN1C(=O)[C@H](Cc1c[nH]cn1)NC(=O)[C@H](CC(C)C)NC(=O)[C@H](Cc1ccc(O)cc1)NC(=O)[C@@H](NC(=O)[C@H](CO)NC(=O)CNC(=S)Nc1ccc2c(c1)C(=O)OC21c2ccc(O)cc2Oc2cc(O)ccc21)[C@@H](C)O)C(=O)N1CCC[C@H]1C(=O)N[C@@H](CC(C)C)C(=O)O` ({FITC}-GSTYLHPLSELLGIPL-OH), the Kd [7] is reported as 50.8 µM.

For `CC[C@H](C)[C@H](NC(=O)CNC(=O)[C@H](CCC(=O)O)NC(=O)[C@H](C)NC(=S)Nc1ccc2c(c1)C(=O)OC21c2ccc(O)cc2Oc2cc(O)ccc21)C(=O)N[C@@H](CC(=O)O)C(=O)N[C@H](C(=O)NCC(=O)N[C@@H](CCC(=O)O)C(=O)N[C@@H](CCSC)C(=O)N1CCC[C@H]1C(=O)N[C@@H](CO)C(=O)N[C@@H](Cc1ccc(O)cc1)C(=O)N[C@@H](CC(=O)O)C(=O)N[C@@H](CC(C)C)C(=O)N[C@H](C(=O)N[C@@H](CC(C)C)C(=O)O)C(C)C)[C@@H](C)CC`, the Kd [8] was 15.5 µM.

For Ac-QFTEEDLHFVLYGVTPY-NH2 [PRDM14 wt], the IC50 [4] was 400 µM and the Kd [4] was 74 µM.
